{
  "source": "ChEMBL document CHEMBL1201862",
  "about": "“PubChem BioAssay data set” (2004)",
  "key": {"[1]": {"target": "ADP-ribosylation factor GTPase-activating protein 1 (Rattus norvegicus, UniProt Q62848)", "sequence (Q62848 whole entry)": "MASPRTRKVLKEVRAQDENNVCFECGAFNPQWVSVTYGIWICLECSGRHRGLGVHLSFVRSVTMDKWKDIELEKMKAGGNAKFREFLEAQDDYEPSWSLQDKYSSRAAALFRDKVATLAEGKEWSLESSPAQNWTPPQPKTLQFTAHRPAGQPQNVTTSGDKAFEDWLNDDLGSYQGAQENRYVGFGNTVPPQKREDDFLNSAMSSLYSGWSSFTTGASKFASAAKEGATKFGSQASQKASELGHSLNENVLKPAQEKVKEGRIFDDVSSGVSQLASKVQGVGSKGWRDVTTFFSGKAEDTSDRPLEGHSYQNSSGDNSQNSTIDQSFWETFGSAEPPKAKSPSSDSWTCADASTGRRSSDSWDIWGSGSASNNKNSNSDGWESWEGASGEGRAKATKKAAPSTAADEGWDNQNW", "assay": "Fluorescence polarization-based biochemical high throughput dose response screening assay to identify inhibitors of ADP-ribosylation factor GTPase activating protein 1 (ARFGAP1).", "type": "functional"}, "[2]": {"target": "Botulinum neurotoxin type F (Clostridium botulinum, UniProt P30996)", "sequence (P30996 1-436 limits assumed)": "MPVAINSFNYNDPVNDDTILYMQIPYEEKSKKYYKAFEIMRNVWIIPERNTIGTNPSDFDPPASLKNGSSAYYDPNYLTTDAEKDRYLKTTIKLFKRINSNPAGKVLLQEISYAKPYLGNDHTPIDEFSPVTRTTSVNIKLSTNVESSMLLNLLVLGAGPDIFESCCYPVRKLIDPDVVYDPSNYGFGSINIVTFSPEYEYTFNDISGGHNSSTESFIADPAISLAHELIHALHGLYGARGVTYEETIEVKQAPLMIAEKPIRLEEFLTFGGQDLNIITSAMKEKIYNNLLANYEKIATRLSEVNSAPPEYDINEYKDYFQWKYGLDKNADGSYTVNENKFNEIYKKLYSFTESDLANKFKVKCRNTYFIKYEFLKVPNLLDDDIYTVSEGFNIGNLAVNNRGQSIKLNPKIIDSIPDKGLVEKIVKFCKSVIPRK", "assay": "High-throughput multiplex microsphere dose response for inhibitors of toxin protease, specifically Botulinum neurotoxin light chain F protease, compounds from Cherry Pick 02.", "type": "functional", "details": "read-out: EC50_MICROM"}, "[3]": {"target": "T1, Low molecular weight phosphotyrosine protein phosphatase (Homo sapiens, UniProt P24666)", "T1 sequence (P24666 whole entry)": "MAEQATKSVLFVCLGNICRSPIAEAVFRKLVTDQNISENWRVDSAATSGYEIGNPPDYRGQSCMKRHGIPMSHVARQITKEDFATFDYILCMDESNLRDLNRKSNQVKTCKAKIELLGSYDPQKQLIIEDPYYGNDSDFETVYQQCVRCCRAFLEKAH", "type": "functional", "details": "read-out: IC50_Mean"}, "[4]": {"target": "Platelet-activating factor acetylhydrolase (Mus musculus, UniProt Q60963)", "sequence (Q60963 whole entry)": "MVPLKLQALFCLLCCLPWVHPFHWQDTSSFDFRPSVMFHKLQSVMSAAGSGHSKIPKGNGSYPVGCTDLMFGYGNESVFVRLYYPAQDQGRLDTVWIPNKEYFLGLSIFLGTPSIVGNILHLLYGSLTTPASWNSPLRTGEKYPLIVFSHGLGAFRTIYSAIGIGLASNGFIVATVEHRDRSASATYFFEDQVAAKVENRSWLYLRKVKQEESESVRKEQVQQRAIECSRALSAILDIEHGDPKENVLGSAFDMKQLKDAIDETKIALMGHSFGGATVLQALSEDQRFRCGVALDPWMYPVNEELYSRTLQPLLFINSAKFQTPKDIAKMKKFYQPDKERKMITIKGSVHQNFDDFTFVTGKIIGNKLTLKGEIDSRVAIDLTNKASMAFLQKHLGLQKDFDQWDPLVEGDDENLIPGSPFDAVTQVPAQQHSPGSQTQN", "assay": "Late stage assay provider results from the probe development effort to identify inhibitors of pPAFAH: fluorescence-based dose-response biochemical gel-based competitive Activity-Based Protein Profiling (ABPP) assay for SAR compounds.", "type": "functional"}, "[5]": {"assay": "anti-trypanosomal activity in BESM host cells – imaging, CA-I/72 strain, bovine embryo skeletal muscle, dry powder, dose response (AID 651885)", "type": "functional, cell-based"}, "[6]": {"assay": "African trypanosome bloodstream form growth inhibition – STIB900 strain, plate reader, cherry pick, dose response (AID 651893)", "type": "functional, cell-based, Trypanosoma brucei rhodesiense", "details": "Trypanosoma brucei"}, "[7]": {"assay": "Inhibition of Plasmodium falciparum NF54 Measured in Cell-Based System Using Plate Reader - 2138-11_Inhibitor_Dose_CherryPick_Activity.", "type": "functional"}, "[8]": {"assay": "intracellular Trypanosoma cruzi inhibitors in host cells – cell-based, plate reader, cherry-pick samples, set 3, dose response (AID 651818);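 also: compounds incubated with infected cells for about four days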", "type": "functional"}, "[9]": {"assay": "Inhibition of T. cruzi Tulahuen strain amastigotes in L-6 muscle cells Measured in Cell-Based and Microorganism Combination System Using Plate Reader - 2138-03_Inhibitor_Dose_CherryPick_Activity.", "type": "functional", "details": "Rattus norvegicus, L6"}, "[10]": {"assay": "antileishmanial activity on axenic amastigotes – plate reader, cherry pick, dose response (AID 651891)", "type": "functional, cell-based", "details": "Leishmania donovani"}, "[11]": {"assay": "L6 myocyte viability loss – cell-based, plate reader, cherry-pick, cytotoxicity control, dose response (AID 651896)", "type": "functional"}, "[12]": {"target": "Apoptotic protease-activating factor 1 (Homo sapiens, UniProt O14727)", "sequence (O14727 whole entry)": "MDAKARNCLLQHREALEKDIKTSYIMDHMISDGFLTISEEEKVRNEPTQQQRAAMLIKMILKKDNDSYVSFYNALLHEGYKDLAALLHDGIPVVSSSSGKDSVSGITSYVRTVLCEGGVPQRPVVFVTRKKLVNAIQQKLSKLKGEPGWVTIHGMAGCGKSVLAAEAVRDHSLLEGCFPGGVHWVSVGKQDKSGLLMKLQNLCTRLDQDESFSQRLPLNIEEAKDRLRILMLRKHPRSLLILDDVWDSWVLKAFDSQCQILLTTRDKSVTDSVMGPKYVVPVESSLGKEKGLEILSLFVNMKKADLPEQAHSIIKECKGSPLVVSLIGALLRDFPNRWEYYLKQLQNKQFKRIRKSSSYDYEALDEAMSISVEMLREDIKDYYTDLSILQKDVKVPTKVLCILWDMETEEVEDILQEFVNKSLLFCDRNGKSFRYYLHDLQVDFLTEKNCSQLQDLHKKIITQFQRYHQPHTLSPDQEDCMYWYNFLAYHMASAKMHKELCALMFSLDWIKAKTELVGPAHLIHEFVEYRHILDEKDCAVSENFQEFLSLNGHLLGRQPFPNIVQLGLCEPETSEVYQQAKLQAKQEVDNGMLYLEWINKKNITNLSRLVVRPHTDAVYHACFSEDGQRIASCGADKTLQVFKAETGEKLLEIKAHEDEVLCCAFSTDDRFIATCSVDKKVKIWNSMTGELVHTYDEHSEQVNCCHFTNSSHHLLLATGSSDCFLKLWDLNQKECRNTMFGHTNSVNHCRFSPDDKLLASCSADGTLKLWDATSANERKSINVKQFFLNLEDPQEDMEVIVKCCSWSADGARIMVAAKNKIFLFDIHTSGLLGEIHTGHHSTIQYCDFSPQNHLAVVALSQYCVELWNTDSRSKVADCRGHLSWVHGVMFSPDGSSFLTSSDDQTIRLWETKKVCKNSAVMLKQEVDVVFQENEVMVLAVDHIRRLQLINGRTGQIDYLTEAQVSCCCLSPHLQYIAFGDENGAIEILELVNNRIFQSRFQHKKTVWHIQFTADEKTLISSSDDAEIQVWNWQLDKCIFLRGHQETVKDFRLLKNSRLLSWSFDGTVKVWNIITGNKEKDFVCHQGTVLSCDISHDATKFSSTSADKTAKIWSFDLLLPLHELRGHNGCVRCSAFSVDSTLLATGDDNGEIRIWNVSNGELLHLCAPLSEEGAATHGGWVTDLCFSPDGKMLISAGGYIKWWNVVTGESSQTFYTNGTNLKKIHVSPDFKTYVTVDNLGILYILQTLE", "type": "functional"}, "[13]": {"target": "T2, Protein RecA (Mycobacterium tuberculosis, UniProt P9WHJ3)", "T2 sequence (P9WHJ3 whole entry)": "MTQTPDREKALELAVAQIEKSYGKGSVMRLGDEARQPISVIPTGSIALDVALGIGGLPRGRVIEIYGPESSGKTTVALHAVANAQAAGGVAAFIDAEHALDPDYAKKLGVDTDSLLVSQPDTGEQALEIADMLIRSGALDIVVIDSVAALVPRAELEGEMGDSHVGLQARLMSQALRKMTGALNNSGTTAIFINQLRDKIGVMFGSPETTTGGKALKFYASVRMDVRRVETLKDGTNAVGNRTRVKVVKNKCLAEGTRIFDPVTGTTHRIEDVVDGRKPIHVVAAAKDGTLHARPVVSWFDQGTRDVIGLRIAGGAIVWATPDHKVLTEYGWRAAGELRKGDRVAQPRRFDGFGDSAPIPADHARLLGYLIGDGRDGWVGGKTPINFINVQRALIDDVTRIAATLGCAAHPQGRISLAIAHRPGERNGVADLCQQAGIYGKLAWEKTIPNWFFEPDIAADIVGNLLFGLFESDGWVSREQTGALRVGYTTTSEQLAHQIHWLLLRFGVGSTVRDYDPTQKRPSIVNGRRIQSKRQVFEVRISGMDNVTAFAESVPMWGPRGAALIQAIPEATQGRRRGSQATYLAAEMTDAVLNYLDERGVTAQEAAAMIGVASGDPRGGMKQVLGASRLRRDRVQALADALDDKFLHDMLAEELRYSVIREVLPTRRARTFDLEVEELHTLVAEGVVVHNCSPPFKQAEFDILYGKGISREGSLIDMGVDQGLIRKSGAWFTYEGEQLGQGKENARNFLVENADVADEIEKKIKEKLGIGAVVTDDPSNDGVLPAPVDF", "assay": "Fluorescence Cell-Free Homogeneous Dose Retest to Identify Inhibitors of RecA-Intein Splicing Activity. [Related pubchem assays (depositor defined):AID2097, AID2223, AID489010, AID492950]", "type": "functional"}, "[14]": {"target": "T3, Replicative DNA helicase DnaB (Mycobacterium tuberculosis, UniProt P9WMR3)", "T3 sequence (P9WMR3 whole entry)": "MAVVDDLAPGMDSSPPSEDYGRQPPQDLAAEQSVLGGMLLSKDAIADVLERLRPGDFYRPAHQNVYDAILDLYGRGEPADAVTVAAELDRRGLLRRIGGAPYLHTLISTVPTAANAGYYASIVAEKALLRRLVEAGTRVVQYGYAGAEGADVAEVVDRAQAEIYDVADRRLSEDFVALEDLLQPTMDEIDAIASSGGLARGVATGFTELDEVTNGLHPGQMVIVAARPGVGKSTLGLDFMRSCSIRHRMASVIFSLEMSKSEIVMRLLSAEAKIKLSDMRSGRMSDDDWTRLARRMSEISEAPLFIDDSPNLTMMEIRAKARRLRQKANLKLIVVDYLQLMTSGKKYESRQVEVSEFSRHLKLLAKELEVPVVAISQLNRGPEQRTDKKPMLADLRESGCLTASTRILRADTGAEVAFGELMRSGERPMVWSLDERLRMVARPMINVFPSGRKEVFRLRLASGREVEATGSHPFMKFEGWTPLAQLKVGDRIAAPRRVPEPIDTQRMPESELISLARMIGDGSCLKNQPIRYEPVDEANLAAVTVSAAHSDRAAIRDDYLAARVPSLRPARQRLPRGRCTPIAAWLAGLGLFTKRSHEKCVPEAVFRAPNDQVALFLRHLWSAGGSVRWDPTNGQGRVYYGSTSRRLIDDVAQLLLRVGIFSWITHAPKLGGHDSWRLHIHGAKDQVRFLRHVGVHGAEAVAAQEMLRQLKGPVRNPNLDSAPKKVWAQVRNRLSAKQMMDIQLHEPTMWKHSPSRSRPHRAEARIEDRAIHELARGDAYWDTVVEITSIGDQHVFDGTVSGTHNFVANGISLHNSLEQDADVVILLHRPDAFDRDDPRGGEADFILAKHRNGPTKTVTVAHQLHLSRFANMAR", "assay": "DnaB intein splicing inhibitors, dose response, biochemical, cell-free fluorescence (AID 449749)", "type": "functional"}, "[15]": {"target": "Nonstructural protein 1 (Influenza A virus, UniProt Q194T2)", "sequence (Q194T2 whole entry)": "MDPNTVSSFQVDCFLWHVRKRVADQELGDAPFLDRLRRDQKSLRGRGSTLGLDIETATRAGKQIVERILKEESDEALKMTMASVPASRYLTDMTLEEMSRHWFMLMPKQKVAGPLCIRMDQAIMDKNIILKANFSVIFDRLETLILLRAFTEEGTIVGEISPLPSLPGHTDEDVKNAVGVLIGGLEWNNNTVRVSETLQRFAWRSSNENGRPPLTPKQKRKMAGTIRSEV", "type": "functional, Influenza A virus (A/California/07/2009(H1N1))"}, "[16]": {"assay": "viability of PTEN-deleted HCT116 cells – cell-based, HCT116 PTEN knockout, dose response (AID 1047);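 also: cells exposed to compound for 60 hours before readout; potency for loss of cell viability measured by luminescence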", "type": "functional"}, "[17]": {"assay": "viability of HCT116 lacking mutant beta-catenin – cell-based, human colon tumor, dose response (AID 1045);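 also: cells exposed to compound for 60 hours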", "type": "functional"}, "[18]": {"target": "DNA repair and recombination protein RAD54-like (Homo sapiens, UniProt Q92698)", "sequence (Q92698 whole entry)": "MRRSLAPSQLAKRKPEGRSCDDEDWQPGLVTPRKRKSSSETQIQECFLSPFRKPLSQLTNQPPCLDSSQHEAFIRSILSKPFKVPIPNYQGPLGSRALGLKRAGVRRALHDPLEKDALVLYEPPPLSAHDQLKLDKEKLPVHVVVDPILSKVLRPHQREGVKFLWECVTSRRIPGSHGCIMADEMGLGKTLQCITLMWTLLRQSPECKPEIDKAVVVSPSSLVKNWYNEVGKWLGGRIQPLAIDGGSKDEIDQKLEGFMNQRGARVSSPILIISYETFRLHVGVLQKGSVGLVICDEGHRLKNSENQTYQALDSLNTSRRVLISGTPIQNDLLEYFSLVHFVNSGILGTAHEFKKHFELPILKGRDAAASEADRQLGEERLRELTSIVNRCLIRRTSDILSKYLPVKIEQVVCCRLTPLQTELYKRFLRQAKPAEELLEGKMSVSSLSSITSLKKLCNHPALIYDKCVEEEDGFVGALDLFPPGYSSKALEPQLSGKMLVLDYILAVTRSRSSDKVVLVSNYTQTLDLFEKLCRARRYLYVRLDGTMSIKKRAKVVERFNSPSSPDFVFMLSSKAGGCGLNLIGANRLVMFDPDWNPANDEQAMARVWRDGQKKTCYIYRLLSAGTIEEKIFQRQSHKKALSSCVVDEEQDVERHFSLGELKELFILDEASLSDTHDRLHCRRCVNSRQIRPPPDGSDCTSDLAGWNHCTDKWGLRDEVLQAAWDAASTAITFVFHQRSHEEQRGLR", "assay": "RAD54 Holliday junction migration blockers – biochemical, fluorescence, cherry-picked samples, dose series, confirmation (AID 651657)", "type": "functional"}, "[19]": {"target": "Cytochrome P450 3A4 (Homo sapiens, UniProt P08684)", "sequence (P08684 whole entry)": "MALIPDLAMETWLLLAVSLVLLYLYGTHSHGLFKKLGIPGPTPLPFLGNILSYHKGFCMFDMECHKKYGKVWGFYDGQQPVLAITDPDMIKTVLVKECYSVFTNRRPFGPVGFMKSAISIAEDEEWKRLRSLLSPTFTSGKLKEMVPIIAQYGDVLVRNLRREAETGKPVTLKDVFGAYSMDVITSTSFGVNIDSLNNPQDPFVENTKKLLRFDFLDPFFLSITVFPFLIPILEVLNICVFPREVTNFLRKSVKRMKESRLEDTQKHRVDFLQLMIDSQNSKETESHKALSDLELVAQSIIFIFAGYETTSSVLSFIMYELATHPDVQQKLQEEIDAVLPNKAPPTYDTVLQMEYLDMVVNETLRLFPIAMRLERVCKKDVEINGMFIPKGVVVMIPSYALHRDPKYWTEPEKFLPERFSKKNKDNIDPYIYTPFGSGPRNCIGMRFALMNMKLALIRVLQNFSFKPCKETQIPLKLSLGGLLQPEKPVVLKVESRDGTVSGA"}},
  "note": "The source made the active and inactive calls. Unless noted, the rule behind the calls is not given here.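 For IC50 Mean in this document: Dose-response confirmation assay measuring inhibition of LMPTP enzyme activity by fluorescence intensity read-out.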",
  "data": [
    {"smiles": "COc1ccc(-n2c(=O)c3c4c(sc3n3cnnc23)CC(C)CC4)cc1", "note": "(centres undefined)", "values": [
      {"measurement": "IC50", "setting": "[1]", "result": "23.1 µM (inactive)"}
    ]},
    {"smiles": "COc1ccc(C(CNC(=O)c2ccc(OC)c(S(=O)(=O)N3CCCC3)c2)N2CCCC2)cc1", "note": "(centres undefined)", "values": [
      {"measurement": "EC50", "setting": "[2]", "result": "> 20 µM (inactive)"}
    ]},
    {"smiles": "Cc1cc(N2CCN(C(=O)Oc3ccc([N+](=O)[O-])cc3)CC2)c2ccccc2n1", "values": [
      {"measurement": "IC50", "setting": "[3]", "result": "25.4 µM (inactive)"},
      {"measurement": "IC50", "setting": "[4]", "result": "0.179 µM (active)"}
    ]},
    {"smiles": "C[C@H]1CN([C@@H](C)CO)C(=O)c2cccc(NC(=O)c3ccncc3)c2O[C@@H]1CN(C)Cc1ccc(-c2ccccc2)cc1", "values": [
      {"measurement": "IC50", "setting": "[5]", "result": "10 µM (inconclusive)"},
      {"measurement": "IC50", "setting": "[6]", "result": "6.41 µM (inactive)"},
      {"measurement": "IC50", "setting": "[7]", "result": "1.14 µM (active)"},
      {"measurement": "AC50", "setting": "[8]", "result": "0.075 µM (active)"},
      {"measurement": "IC50", "setting": "[9]", "result": "1.14 µM (active)"},
      {"measurement": "IC50", "setting": "[10]", "result": "6.47 µM (inactive)"},
      {"measurement": "IC50", "setting": "[11]", "result": "17.5 µM (active)"}
    ]},
    {"smiles": "Cc1nn(-c2ccccc2)c(O)c1/C=N/NC(=O)c1ccc(O)cc1O", "values": [
      {"measurement": "IC50", "setting": "[12]", "result": "5.15 µM (active)"},
      {"measurement": "EC50", "setting": "[13]", "result": "3.13 µM (active)"},
      {"measurement": "AC50", "setting": "[14]", "result": "2.5 µM (active)"},
      {"measurement": "IC50", "setting": "[15]", "result": "3.09 µM (active)"}
    ]},
    {"smiles": "CCOc1ccc2nc(C)cc(Nc3ccc4c(c3)OCCO4)c2c1", "values": [
      {"measurement": "EC50", "setting": "[16]", "result": "14.7 µM (active)"},
      {"measurement": "EC50", "setting": "[17]", "result": "11.3 µM (active)"},
      {"measurement": "AC50", "setting": "[18]", "result": "25 µM (active)"},
      {"measurement": "AC50", "setting": "[19]", "result": "25.1 µM (inconclusive)"}
    ]}
  ]
}
